Test results taken from patent US12414960B2, “Analogues of oleuropein and oleacein and uses thereof” (Attica Sciences Ltd., priority 2020, dated 2025).
“Also recorded” adds a separate entry of the source.

How the values were obtained:
Type in all cases: cell-based, human
[1] = test system: HCT-116 colon cancer cells; assay: Cell Glo luminescence cell growth assay, HCT-116; settings: NS = not statistically significant; for inhibition at 1 µM: Homo sapiens, HCT-116, 24 h, read-out: Effectiveness to suppress HCT-116 cell growth (cell growth inhibition); for Effectiveness to suppress HCT-116 cell growth (cell growth inhibition): 1 uM, 24 h
From the text: The CellTiter-Glo® Luminescent Cell Viability Assay (Promega Corporation; Madison, WI) is a homogeneous method of determining the number of viable cells in culture based on quantitation of the ATP present, an indicator of metabolically active cells. The homogeneous assay procedure involves adding the single reagent (CellTiter-Glo® Reagent) directly to cells cultured in serum-supplemented medium. The homogeneous “add-mix-measure” format results in cell lysis and generation of a luminescent signal proportional to the amount of ATP present. The amount of ATP is directly proportional to the number of cells present in culture.
Cancer cells (3,000 cells/well) were harvested in a 96-well plate. Then, the cancer cells were treated with GS compounds and incubated for 24 hours. The MT Cell Viability Substrate, NanoLuc® Enzyme and cell culture medium was equilibrated to 37° C. The 2× RealTime-Glo™ reagent was prepared by diluting the MT Cell Viability Substrate and NanoLuc® Enzyme in 37° C. cell culture medium to a 2× concentration for each reagent. For example, 1 mL of 2× RealTime-Glo™ reagent was prepared by adding 2 μL of MT Cell Viability Substrate, 1,000×, and 2 μL of NanoLuc® Enzyme, 1,000×, to 996 μL of cell culture medium to form the 2× RealTime-Glo™ reagent. Then, an equal volume of 2× RealTime-Glo™ reagent was added to the cancer cells. The cells were kept for ˜20 minutes in the cell culture incubator and then luminescence was measured by using a plate-reading luminometer.
HCT-116 is a human colorectal cancer cell lines that has a mutation in RAS proto-oncogene.
(§1) The effects of exemplary compounds on cancer cell lines and one non-tumorigenic cell line (control) were investigated using a high throughput screening assay. More specifically, the effects of the GS compounds on cell growth was evaluated by the XTT assay for cell lines HepG2, HeLa, MCF7 ER+, MDA-MB-231, and MKN-45, and by the Cell Glo luminescence assay for cell lines MIA PaCa-2, HCT-116, MCF-10A, and PANC-1.

HepG2 liver cancer cells = assay: XTT cell growth assay, HepG2; settings: NS = not statistically significant; for inhibition at 50 µM: Homo sapiens, HepG2, 24 h, read-out: Effectiveness to suppress HepG2 cell growth (cell growth inhibition)
From the text: The XTT assay is used to measure cellular metabolic activity as an indicator of cell viability, proliferation and cytotoxicity. This non-radioactive, colorimetric assay system was first described by Scudiero, et al. in 1988 (Paull, Kenneth D. et al., J Heterocycl Chem, 1988, 25: 911-914; Scudiero, Dominic A. et al., Cancer Res, 1988, 48: 4827-4833) and improved in subsequent years by several other investigators (Weislow, Owen S. et al., J Natl Cancer Inst, 1989, 81(8): 577-586; Roehm, N. W. et al., J Immunol Methods, 1991, 142: 257-265).
The XTT assay is based on the reduction of a yellow tetrazolium salt (sodium 3′-[1-(phenylaminocarbonyl)-3,4-tetrazolium]-bis (4-methoxy6-nitro) benzene sulfonic acid hydrate or XTT) to an orange formazan dye by metabolically active cells (FIG. 8). The formazan dye formed is soluble in aqueous solutions and is directly quantified using a scanning multiwell spectrophotometer (ELISA reader). An increase in number of living cells results in an increase in the overall activity of mitochondrial dehydrogenases in the sample. This increase directly correlates to the amount of orange formazan formed, as monitored by the absorbance. Reduced number of living cells leads to reduced metabolism of quaternary salt and therefore reduced absorption.
Cell viability was assessed using the XTT assay kit (Roche, Mannheim, Germany) as described previously (Kouka, Paraskevi et al., Oxid Med Cell Longev. 2019, Article ID 1870965). Briefly, cancer cells per well were cultured in a 96-well plate in Dulbecco's modified Eagle's medium (DMEM). Following a 24 h incubation, 5, 10 and 50 μM of the tested GS compound was diluted in a serum-free DMEM and administered for 24 h. Subsequently, 50 μL of the XTT reagent (50:1) was added to each well. After 4 h of incubation, the absorbance was monitored at 450 nm and also at 630 nm as a reference wavelength in a BioTek ELx800 microplate reader (BioTek Instruments Inc., Winooski, VT, USA). As a negative control, samples containing serum-free DMEM only were used.
Hep G2 (or HepG2) is a human liver cancer cell line. Hep G2 is an immortal cell line which was derived from the liver tissue of an adolescent with a well-differentiated hepatocellular carcinoma. Hep G2 cells are a suitable in vitro model system for the study of polarized human hepatocytes.
as §1

pACLY (S455) = assay: ELISA of pACLY (S455) / ACLY enzymatic activity in PANC-1 cells; settings: 5 μM
Method: ELISA assay was used to evaluate the effect of GS compounds on protein activity levels in PANC-1 cancer cells. PANC-1 cells were serum-starved overnight and then treated with rIGF1 (100 ng/mL) for 24 hours, with or without GS27 (5 μM). The levels of the following proteins were evaluated by ELISA assay: a) p70 S6 (T389) (cat no. 54164C, Cell Signaling); b) pAKT (S473), (cat no. 80895, Cell Signaling); c) pACLY (S455), (cat no. okag1672, Avivasysbio); d) pAMPK (T172) (cat no. 7959C, Cell Signaling) and e) p65/NFKB (S536), (cat no. 7173, Cell Signaling).
PANC-1 is a human pancreatic ductal adenocarcinoma cell line derived from the carcinoma of a person.
The molecular mechanism of action of GS27, a compound that has exerted potent anti-cancer activity in different cancer cell lines including pancreatic cancer cells, was investigated. Oleacein has been implicated to have anti-inflammatory and metabolic effects, thus the potential effects of GS27 in different metabolic and inflammatory pathways were evaluated. Specifically, the protein levels of p70 S6 (T389), pAKT (S473), pACLY (S455), pAMPK (T172) and p65/NFKB (S536) were evaluated by ELISA assay in PANC-1 pancreatic cancer cells treated with 5 μM GS27. GS27 reduced p70 S6 and AKT phosphorylation levels, while it increased AMPK phosphorylation.
The effects of different GS compounds on ACLY enzymatic activity were evaluated by ELISA assay in PANC-1 pancreatic cancer cells. […] This finding is unexpected, since GS21 has a very similar structure with GS27, with the only difference being the presence of an oxygen atom in ester GS21 instead of a sulfur atom in thioester GS27.

Structure (SMILES): C/C=C(/C=O)[C@@H](CC=O)CC(=O)OCCc1ccc(O)cc1 [GS19, (3S,4E)-4-formyl-3-(2-oxoethyl)-4-hexenoic acid 2-(4-hydroxyphenyl)ethyl ester, reference compound]
- inhibition at 1 µM [1]: 21.6%

Structure (SMILES): C/C=C(/C=O)[C@@H](CC=O)CC(=O)OCCOc1ccccc1 [GS24, (3S,4E)-4-formyl-3-(2-oxoethyl)-4-hexenoic acid 2-phenoxyethyl ester]
- inhibition at 50 µM (HepG2 liver cancer cells): 57.9%
- ACLY enzymatic activity (ELISA) (pACLY (S455)): small effect

Structure (SMILES): C/C=C(/C=O)[C@@H](CC=O)CC(=O)OCCCCCCCCCCCCCCCC [GS26, (3S,4E)-4-formyl-3-(2-oxoethyl)-4-hexenoic acid hexadecyl ester]
- inhibition at 50 µM (HepG2 liver cancer cells): 50%
- ACLY enzymatic activity (ELISA) (pACLY (S455)): did not show any effect
- Effectiveness to suppress HCT-116 cell growth (cell growth inhibition) [1]: suppressive activity
- inhibition at 1 µM [1]: 36.3%

Structure (SMILES): C/C=C(/C=O)[C@@H](CC=O)CC(=O)SCCc1ccccc1 [GS27, S-phenethyl (3S,4E)-4-formyl-3-(2-oxoethyl)hex-4-enethioate]
- inhibition at 50 µM (HepG2 liver cancer cells): 40.9%
- ACLY enzymatic activity (ELISA) (pACLY (S455)): dramatic effect on reducing; also recorded: substantially reducing
- Effectiveness to suppress HCT-116 cell growth (cell growth inhibition) [1]: suppressive activity
- inhibition at 1 µM [1]: 56.5%

Structure (SMILES): C/C=C(/C=O)[C@@H](CC=O)CC(=O)OCCCSC [GS28, (3S,4E)-4-formyl-3-(2-oxoethyl)-4-hexenoic acid 3-(methylthio)propyl ester]
- Effectiveness to suppress HepG2 cell growth (cell growth inhibition) (HepG2 liver cancer cells; 50 uM, 24 h): best efficacy
- inhibition at 50 µM (HepG2 liver cancer cells): 69.7%
- ACLY enzymatic activity (ELISA) (pACLY (S455)): did not show any effect
- Effectiveness to suppress HCT-116 cell growth (cell growth inhibition) [1]: suppressive activity
- inhibition at 1 µM [1]: 34.4%
